Reference: patent publication US4732977A, “Carbapenem antibiotics” (priority 1986, dated 1988)
Converted amounts (≈) assume the structure as drawn. Where two headings read alike, the source gives them in different places. Values belong to the molecule of their own block, whether it stands above or below them.

Experiments:
P. aeruginosa A-9843A = assay: M.I.C., tube dilution; assay type: cell-based; settings: overnight incubation at 37° C., Nutrient Broth; listed as Ex. 15"C"
E. cloacae A-9659 = assay: M.I.C., tube dilution; assay type: cell-based; settings: overnight incubation at 37° C., Nutrient Broth
S. pyogenes A-9604 = assay: M.I.C., tube dilution; assay type: cell-based; settings: overnight incubation at 37° C., Nutrient Broth; listed as Ex. 15"C"
[1] = test system: S. aureus A-9606 (Pen-res.); assay: M.I.C., tube dilution; assay type: cell-based; settings: overnight incubation at 37° C.
K. pneumoniae A20468 = assay: M.I.C., tube dilution; assay type: cell-based; settings: Nutrient Broth
S. pneumoniae A-9585 = assay: M.I.C., tube dilution; assay type: cell-based; settings: overnight incubation at 37° C., Nutrient Broth
P. aeruginosa A21213 = assay: M.I.C., tube dilution; assay type: cell-based; settings: Nutrient Broth
K. pneumoniae A-9664 = assay: M.I.C., tube dilution; assay type: cell-based; settings: Nutrient Broth
P. morganii A15153 = assay: M.I.C., tube dilution; assay type: cell-based; settings: overnight incubation at 37° C.
E. coli A15119 = assay: M.I.C., tube dilution; assay type: cell-based; settings: overnight incubation at 37° C., Nutrient Broth
E. cloacae A-9656 = assay: M.I.C., tube dilution; assay type: cell-based; settings: Nutrient Broth
E. coli A20341-1 = assay: M.I.C., tube dilution; assay type: cell-based; settings: Nutrient Broth
P. rettgeri A22424 = assay: M.I.C., tube dilution; assay type: cell-based; settings: overnight incubation at 37° C., Nutrient Broth
S. marcescens A20019 = assay: M.I.C., tube dilution; assay type: cell-based; settings: overnight incubation at 37° C., Nutrient Broth
[2] = Blood levels in mice after intramuscular administration; settings: for AUC / Cmax / half-life: 20 mg/kg;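 on all read-outs here: compounds dissolved in 0.1 M phosphate buffer at pH 7, data from one experiment using four mice for each compound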
Source text: Compounds were solubilized in 0.1 M phosphate buffer pH 7.
a single test; 4 mice used per compound.
Compounds were solubilized in 0.1 M phosphate buffer, pH 7.
on a single test; 4 mice per compound.

P. vulgaris A21559 = assay: M.I.C., tube dilution; assay type: cell-based; settings: Nutrient Broth
S. aureus A-9537 = assay: M.I.C., tube dilution; assay type: cell-based
P. mirabilis A-9900 = assay: M.I.C., tube dilution; assay type: cell-based; settings: Nutrient Broth
S. faecalis A20688 = assay: M.I.C., tube dilution; assay type: cell-based; settings: Nutrient Broth
[3] = Half-life (stability) in buffer solution; assay type: physicochemical; settings: 10^-4 M, (phosphate) buffer pH 7.4, 37° C.; read-out: half-life in solution (converted)
Protocol: T1/2 =9.8 h (measured at a concentration of 10^-4 M in phosphate buffer pH 7.4 at 36.8° C.).
UV (phosphate buffer, pH 7.4) λmax 294 nm (ε=8,202); T1/2 (phosphate buffer, pH 7.4, M=0.967, T=37° C.) 9.1 h.
(c of 10^-4 M in pH 7.4 phosphate buffer.
.tau.1/2 =20.8 h measured at 37° C. in buffer (pG 7.4) for a concentration of 10^-4 M.
.tau.1/2 =12.5 h measured at 37° C. in buffer pH 7.4 for a concentration of 10^-4 M.
h (measured for a concentration of 10^-4 M at 36.8° C. in buffer pH 7.4).
.tau.1/2 =26.0 h (measured for a concentration of 10^-4 M at 36.8° C. in buffer pH 7.4).
.tau.1/2 =16.6 h (measured at 36.8° C., pH 7.4 for a concentration of 10^-4 M) and (5R, 6S) 6-(1R-hydroxyethyl)7-oxo-3-[1,2,6-trimethylpyridinium-4-yl)methylthio]-1-azabicyclo[3.2.0 hept-2-ene-2-carboxylate, 0.010 g, 0.7%;
.tau.1/2 =11.6 h (measured for a concentration of 10^-4 M at 36.8° C. in buffer pH 7.4).
.tau.1/2 =13.4 h (measured for a concentration of 10^-4 M at 36.8° C. in buffer pH 7.4).
.tau.1/2 =14.4 h (measured for a concentration of 10^-4 M at 36.8° C. in buffer pH 7.4).
T 1/2: 10.2 h (biological buffer).
.tau.1/2 =10.2 h measured at 36.8° C. for a concentration of 10^-4 M in buffer pH 7.4.

[4] = overnight incubation at 37° C., listed as Ex. 15"C"
[5] = Klebsiella pneumoniae, A20468, overnight incubation at 37° C., read-out: MIC
[6] = Pseudomonas aeruginosa, A21213, overnight incubation at 37° C., read-out: MIC
[7] = Escherichia coli, A15119, read-out: MIC
[8] = Enterobacter cloacae, A9656, overnight incubation at 37° C., read-out: MIC
[9] = Escherichia coli, A203411, overnight incubation at 37° C., read-out: MIC
[10] = Proteus vulgaris, A21559, overnight incubation at 37° C., read-out: MIC
[11] = Enterococcus faecalis, A20688, overnight incubation at 37° C., read-out: MIC

Structure (SMILES): C[C@@H](O)C1C(=O)N2C(C(=O)[O-])=C(SCc3cn(C)n[n+]3C)CC12 (stereo partly drawn) [Example 15 "C", 3-[4-(N,N-dimethyl-1,2,3-triazolium)methylthio]-6α-[1-(R)-hydroxyethyl]-7-oxo-1-azabicyclo(3.2.0)hept-2-ene-2-carboxylate]
- MIC (P. aeruginosa A-9843A): 8 µg/mL (≈ 23.6 µM)
- MIC (E. cloacae A-9659; listed as Ex. 15"C"): 0.13 µg/mL (≈ 0.384 µM)
- MIC (S. pyogenes A-9604): 0.0003 µg/mL (≈ 0.000887 µM)
- MIC [1]: 0.03 µg/mL (≈ 0.0887 µM)
- MIC (K. pneumoniae A20468; [4]): 0.13 µg/mL (≈ 0.384 µM)
- MIC (S. pneumoniae A-9585): 0.0005 µg/mL (≈ 0.00148 µM)
- MIC (P. aeruginosa A21213; [4]): 0.5 µg/mL (≈ 1.48 µM)
- MIC (K. pneumoniae A-9664; [4]): 0.06 µg/mL (≈ 0.177 µM)
- MIC (P. morganii A15153; printed M. morganii A15153, listed as Ex. 15"C"): 0.25 µg/mL (≈ 0.739 µM)
- MIC (E. coli A15119; listed as Ex. 15"C"): 0.06 µg/mL (≈ 0.177 µM)
- MIC (E. cloacae A-9656; [4]): 0.13 µg/mL (≈ 0.384 µM)
- MIC (E. coli A20341-1; overnight incubation at 37° C.): 0.03 µg/mL (≈ 0.0887 µM)
- MIC (P. rettgeri A22424; listed as Ex. 15"C"): 0.25 µg/mL (≈ 0.739 µM)
- MIC (S. marcescens A20019; listed as Ex. 15"C"): 0.13 µg/mL (≈ 0.384 µM)
- T1/2 ([2]; mice, 20 mg/kg i.m. (table 9)): 10 min
- AUC ([2]; mice, 20 mg/kg i.m. (table 9)): 7300 ng·h/mL
- Cmax ([2]; mice, 20 mg/kg i.m. (table 9)): 15100 ng/mL
- MIC (P. vulgaris A21559; [4]): 0.06 µg/mL (≈ 0.177 µM)
- MIC (S. aureus A-9537; +50% serum, listed as Ex. 15"C"): 0.06 µg/mL (≈ 0.177 µM)
- MIC (S. aureus A-9537; overnight incubation at 37° C., Nutrient Broth, listed as Ex. 15"C"): 0.016 µg/mL (≈ 0.0473 µM)
- MIC (P. mirabilis A-9900; [4]): 0.06 µg/mL (≈ 0.177 µM)
- MIC (S. faecalis A20688; overnight incubation at 37° C.): 0.5 µg/mL (≈ 1.48 µM)

- MIC (E. cloacae A-9659; Enterobacter cloacae, A9659, read-out: MIC): 2 µg/mL
- MIC ([1]; Staphylococcus aureus): 0.5 µg/mL
- MIC (K. pneumoniae A20468; [5]): 0.5 µg/mL
- MIC (P. aeruginosa A21213; [6]): 16 µg/mL
- MIC (P. morganii A15153; Morganella morganii, A15153, printed M. morganii A15153, read-out: MIC): 0.5 µg/mL
- MIC (E. coli A15119; [7]): 0.6 µg/mL
- MIC (E. cloacae A-9656; [8]): 2 µg/mL
- MIC (E. coli A20341-1; [9]): 0.6 µg/mL
- MIC (P. rettgeri A22424; Providencia rettgeri, A22424, read-out: MIC): 2 µg/mL
- AUC ([2]; mouse, blood, im): 3400 ng·h/mL
- Cmax ([2]; mouse, blood, im): 11000 ng/mL
- half-life ([2]; mouse, blood, im): 8 min
- MIC (P. vulgaris A21559; [10]): 0.13 µg/mL
- MIC (S. aureus A-9537; Staphylococcus aureus, A9537, +50% serum, read-out: MIC): 1 µg/mL
- MIC (S. faecalis A20688; [11]): 4 µg/mL
Structure (SMILES): C[C@@H](O)[C@H]1C(=O)N2C(C(=O)[O-])=C(SCc3cn(C)n[n+]3CC(=O)O)C[C@H]12 [Example 17, Potassium 3-[5-(1-carboxylatomethyl-3-methyl-1,2,3-triazolium)-methanethio]-6α-[1-(R)-hydroxyethyl]-7-oxo-1-azabicyclo[3.2.0]hept-2-ene-2-carboxylate]

Structure (SMILES): C[C@@H](O)[C@H]1C(=O)N2C(C(=O)[O-])=C(SCc3n[n+](C)nn3C)C[C@H]12 [Example 20, (1'R,5R,6S) 3-[(1,3-dimethyl-5-tetrazolium)-methylthio]-6-(1-hydroxyethyl)-7-oxo-1-azabicyclo[3.2.0]hept-2-ene-2-carboxylate]
- MIC (K. pneumoniae A20468; [5]): 4 µg/mL (≈ 11.8 µM)
- half-life at 100 µM [3]: 630 min
- MIC (P. aeruginosa A21213; [6]): 16 µg/mL (≈ 47.1 µM)
- MIC (K. pneumoniae A-9664; Klebsiella pneumoniae, A9664, overnight incubation at 37° C., read-out: MIC): 4 µg/mL (≈ 11.8 µM)
- MIC (E. coli A15119; [7]): 1 µg/mL (≈ 2.95 µM)
- MIC (E. cloacae A-9656; [8]): 16 µg/mL (≈ 47.1 µM)
- MIC (E. coli A20341-1; [9]): 2 µg/mL (≈ 5.89 µM)
- MIC (S. marcescens A20019; Serratia marcescens, A20019, read-out: MIC): 4 µg/mL (≈ 11.8 µM)
- AUC ([2]; mouse, blood, im): 15600 ng·h/mL
- Cmax ([2]; mouse, blood, im): 28400 ng/mL
- half-life ([2]; mouse, blood, im): 14 min
- MIC (P. vulgaris A21559; [10]): 4 µg/mL (≈ 11.8 µM)
- MIC (S. aureus A-9537; Staphylococcus aureus, A9537, overnight incubation at 37° C., Nutrient Broth, read-out: MIC): 0.5 µg/mL (≈ 1.47 µM)
- MIC (P. mirabilis A-9900; Proteus mirabilis, A9900, overnight incubation at 37° C., read-out: MIC): 4 µg/mL (≈ 11.8 µM)
- MIC (S. faecalis A20688; [11]): 16 µg/mL (≈ 47.1 µM)
